According to publication PMC5469273, “Discovery of Novel Small-Molecule Inhibitors of LIM Domain Kinase for Inhibiting HIV-1” (Journal of Virology, 2017):

Legend:
HIV-1(Nef-luciferase) = test: Nef-luciferase-based viral entry assay; assay type: cell-based; details: 100 μM; data not shown
FLT3 = FLT3 (Homo sapiens, UniProt P36888); test: Kinase profiling (Reaction Biology): FLT3
PIM2 = PIM2 (Homo sapiens, UniProt Q9P1W9); test: Kinase profiling (Reaction Biology): PIM2
RSK1 = RSK1 (Homo sapiens, UniProt Q15418); test: Kinase profiling (Reaction Biology): RSK1
c-MET = c-MET (Homo sapiens, UniProt P08581); test: Kinase profiling (Reaction Biology): c-MET
DAPK1 = DAPK1 (Homo sapiens, UniProt P53355); test: Kinase profiling (Reaction Biology): DAPK1
AMPK(A1/B1/G1) = AMPK(A1/B1/G1) (Homo sapiens, UniProt Q13131); test: Kinase profiling (Reaction Biology): AMPK(A1/B1/G1)
phosphorylation of PAK2 = test: Western blotting for PAK2 phosphorylation in CEM-SS T cells; details: 100 μM, time course
[1] = test system: cofilin serine 3 phosphorylation; test: Western blotting for cofilin serine 3 phosphorylation in CEM-SS T cells; details: 100 μM, time course

FLT3, sequence (P36888 27-993): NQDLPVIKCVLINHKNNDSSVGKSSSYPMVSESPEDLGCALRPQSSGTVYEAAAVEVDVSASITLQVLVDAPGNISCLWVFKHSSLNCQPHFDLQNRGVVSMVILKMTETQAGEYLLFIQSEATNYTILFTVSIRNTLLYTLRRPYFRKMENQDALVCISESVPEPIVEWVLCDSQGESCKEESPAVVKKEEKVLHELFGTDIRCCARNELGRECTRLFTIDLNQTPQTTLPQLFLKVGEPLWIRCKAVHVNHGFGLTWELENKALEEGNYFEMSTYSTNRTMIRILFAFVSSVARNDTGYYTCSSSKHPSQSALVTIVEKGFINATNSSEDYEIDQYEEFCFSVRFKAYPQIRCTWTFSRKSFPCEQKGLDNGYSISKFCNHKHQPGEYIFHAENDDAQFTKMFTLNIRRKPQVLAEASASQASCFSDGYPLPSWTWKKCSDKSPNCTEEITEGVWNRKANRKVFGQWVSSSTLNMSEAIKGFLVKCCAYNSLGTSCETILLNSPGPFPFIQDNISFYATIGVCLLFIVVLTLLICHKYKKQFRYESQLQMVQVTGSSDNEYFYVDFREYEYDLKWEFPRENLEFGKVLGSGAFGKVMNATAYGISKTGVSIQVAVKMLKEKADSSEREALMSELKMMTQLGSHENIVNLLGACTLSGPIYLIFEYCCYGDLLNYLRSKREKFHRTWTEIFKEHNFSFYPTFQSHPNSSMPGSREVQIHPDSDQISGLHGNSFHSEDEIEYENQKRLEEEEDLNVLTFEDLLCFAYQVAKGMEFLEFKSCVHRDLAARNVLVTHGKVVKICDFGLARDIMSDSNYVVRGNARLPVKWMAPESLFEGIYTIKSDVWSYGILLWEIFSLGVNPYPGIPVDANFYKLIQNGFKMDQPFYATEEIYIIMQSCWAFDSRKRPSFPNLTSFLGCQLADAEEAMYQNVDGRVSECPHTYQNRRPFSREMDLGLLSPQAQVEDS
c-MET, sequence (P08581 25-1390): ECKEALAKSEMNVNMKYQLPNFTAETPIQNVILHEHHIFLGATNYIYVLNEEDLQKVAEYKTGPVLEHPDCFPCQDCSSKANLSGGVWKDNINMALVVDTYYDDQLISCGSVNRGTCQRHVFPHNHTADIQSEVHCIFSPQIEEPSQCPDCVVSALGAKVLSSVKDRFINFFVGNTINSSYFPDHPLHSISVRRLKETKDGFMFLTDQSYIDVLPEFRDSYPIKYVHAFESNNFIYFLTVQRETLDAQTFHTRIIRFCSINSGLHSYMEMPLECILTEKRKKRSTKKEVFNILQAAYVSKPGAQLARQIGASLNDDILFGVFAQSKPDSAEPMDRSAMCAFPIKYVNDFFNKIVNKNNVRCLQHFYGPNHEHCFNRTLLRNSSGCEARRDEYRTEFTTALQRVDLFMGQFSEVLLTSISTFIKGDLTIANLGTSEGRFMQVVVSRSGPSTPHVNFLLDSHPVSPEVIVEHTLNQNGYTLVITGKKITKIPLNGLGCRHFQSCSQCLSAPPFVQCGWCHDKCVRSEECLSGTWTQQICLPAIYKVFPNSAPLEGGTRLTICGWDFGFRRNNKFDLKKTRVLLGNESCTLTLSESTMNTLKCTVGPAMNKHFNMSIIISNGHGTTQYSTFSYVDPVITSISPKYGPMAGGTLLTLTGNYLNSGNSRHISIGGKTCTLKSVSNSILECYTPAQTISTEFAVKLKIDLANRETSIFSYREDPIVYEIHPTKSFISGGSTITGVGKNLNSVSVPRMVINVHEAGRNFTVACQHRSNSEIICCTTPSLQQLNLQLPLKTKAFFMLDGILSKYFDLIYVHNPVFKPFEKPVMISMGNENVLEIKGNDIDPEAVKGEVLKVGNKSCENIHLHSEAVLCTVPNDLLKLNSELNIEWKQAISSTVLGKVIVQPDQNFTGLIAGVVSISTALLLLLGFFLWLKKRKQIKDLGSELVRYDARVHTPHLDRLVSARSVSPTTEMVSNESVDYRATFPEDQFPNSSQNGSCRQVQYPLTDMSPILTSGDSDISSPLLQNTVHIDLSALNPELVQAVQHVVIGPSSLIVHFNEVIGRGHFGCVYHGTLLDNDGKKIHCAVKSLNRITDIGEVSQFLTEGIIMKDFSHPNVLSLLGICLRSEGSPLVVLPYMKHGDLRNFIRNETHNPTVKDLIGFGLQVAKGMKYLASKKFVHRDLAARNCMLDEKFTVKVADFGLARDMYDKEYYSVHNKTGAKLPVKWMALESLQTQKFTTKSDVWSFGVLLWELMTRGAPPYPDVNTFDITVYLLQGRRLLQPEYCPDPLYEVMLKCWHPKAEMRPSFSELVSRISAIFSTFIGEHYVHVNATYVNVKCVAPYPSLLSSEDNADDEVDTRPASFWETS
AMPK(A1/B1/G1), sequence (Q13131 whole entry): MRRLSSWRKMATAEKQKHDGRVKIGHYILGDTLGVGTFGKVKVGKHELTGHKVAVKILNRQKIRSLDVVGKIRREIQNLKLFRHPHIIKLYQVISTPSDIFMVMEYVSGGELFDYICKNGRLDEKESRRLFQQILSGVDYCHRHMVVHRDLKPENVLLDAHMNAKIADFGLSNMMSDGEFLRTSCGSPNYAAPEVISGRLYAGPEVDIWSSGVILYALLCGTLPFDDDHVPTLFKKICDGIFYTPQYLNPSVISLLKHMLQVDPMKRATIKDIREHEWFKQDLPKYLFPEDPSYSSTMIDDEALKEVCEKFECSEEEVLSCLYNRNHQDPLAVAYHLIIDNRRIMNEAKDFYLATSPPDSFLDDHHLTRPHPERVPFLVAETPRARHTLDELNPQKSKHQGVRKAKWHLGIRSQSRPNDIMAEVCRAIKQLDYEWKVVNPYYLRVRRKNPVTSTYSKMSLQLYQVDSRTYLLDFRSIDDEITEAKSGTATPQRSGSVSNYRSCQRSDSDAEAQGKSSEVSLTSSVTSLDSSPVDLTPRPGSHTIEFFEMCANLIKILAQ
AMPK(A1/B1/G1), sequence (Q9Y478 whole entry partner): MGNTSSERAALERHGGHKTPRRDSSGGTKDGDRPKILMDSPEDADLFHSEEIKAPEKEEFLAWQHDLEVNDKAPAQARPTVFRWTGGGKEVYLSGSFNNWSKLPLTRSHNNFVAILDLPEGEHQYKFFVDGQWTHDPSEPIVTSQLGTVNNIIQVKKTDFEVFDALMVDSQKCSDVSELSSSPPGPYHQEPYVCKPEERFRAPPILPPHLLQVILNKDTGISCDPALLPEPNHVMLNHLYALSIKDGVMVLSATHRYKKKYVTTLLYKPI
AMPK(A1/B1/G1), sequence (P54619 whole entry partner): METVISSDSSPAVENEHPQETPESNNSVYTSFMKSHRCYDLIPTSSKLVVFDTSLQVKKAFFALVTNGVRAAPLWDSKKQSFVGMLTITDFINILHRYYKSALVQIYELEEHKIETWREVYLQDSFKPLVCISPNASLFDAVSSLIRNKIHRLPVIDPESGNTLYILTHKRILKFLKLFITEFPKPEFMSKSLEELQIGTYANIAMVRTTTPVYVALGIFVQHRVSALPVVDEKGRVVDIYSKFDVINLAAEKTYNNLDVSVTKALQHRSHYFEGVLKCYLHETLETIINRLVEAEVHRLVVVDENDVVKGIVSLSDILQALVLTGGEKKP
RSK1, sequence (Q15418 whole entry): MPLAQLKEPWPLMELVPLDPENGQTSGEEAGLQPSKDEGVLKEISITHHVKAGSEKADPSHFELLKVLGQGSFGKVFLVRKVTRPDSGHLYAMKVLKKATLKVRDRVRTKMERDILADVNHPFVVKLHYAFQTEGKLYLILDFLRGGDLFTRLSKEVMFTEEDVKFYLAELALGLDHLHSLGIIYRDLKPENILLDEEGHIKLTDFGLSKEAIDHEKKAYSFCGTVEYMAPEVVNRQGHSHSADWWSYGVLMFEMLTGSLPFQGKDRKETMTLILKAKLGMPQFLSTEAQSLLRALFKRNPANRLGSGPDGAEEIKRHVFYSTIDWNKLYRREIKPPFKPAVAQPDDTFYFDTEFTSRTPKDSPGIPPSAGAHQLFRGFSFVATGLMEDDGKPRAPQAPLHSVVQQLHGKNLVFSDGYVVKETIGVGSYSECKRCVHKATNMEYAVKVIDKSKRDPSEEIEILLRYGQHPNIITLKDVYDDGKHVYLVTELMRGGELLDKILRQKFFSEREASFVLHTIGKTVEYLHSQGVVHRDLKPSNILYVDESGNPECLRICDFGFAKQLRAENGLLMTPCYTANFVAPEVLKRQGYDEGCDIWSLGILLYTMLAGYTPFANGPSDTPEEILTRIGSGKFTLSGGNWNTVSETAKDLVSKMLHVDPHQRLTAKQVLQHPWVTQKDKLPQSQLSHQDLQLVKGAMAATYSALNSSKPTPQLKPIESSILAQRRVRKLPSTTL
PIM2, sequence (Q9P1W9 whole entry): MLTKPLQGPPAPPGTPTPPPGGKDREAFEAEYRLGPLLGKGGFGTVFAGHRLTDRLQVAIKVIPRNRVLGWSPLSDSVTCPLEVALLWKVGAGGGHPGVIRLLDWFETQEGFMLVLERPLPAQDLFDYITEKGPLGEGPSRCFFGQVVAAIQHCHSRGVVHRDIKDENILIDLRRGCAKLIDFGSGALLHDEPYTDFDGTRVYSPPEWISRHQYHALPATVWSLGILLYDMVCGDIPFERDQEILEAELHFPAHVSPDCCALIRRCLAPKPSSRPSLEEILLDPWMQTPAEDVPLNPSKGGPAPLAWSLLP

For `COC(=O)c1ccc2[nH]c(C3CCN(c4ncnc5[nH]cc(Cl)c45)CC3)nc2c1` [Compound R10015, Methyl 2-(1-(5-chloro-7H-pyrrolo[2,3-d]pyrimidin-4-yl)piperidin-4-yl)-1H-benzo[d]imidazole-5-carboxylate], the “viral entry, HIV-1(Nef-luciferase)” value (HIV-1(Nef-luciferase)) was “did not significantly inhibit”, the activity at 1 µM (FLT3) was 32.2% and the inhibition at 1 µM (FLT3; read-out: inhibition of FLT3) was ~68%. For the same compound, the activity at 1 µM (PIM2) was 97.6%, the activity at 1 µM (RSK1) was 47.2% and the activity at 1 µM (c-MET) was 82.1%. The activity at 1 µM (DAPK1) was 87.8%, the activity at 1 µM (AMPK(A1/B1/G1)) was 76.6% and the “phosphorylation of PAK2” value (phosphorylation of PAK2) was “not affected”. For the same compound, the “cofilin serine 3 phosphorylation” value [1] was “drastic inhibition”.
